Results published in patent US20170273307A1, “SILANE-BASED ANTIMICROBIAL COATINGS AND METHODS OF MAKING AND USING THE SAME” (Trent University, priority 2016, published 2017).

Assay: Hydrolysis study of the silane by 1H NMR in D2O
Assay type: physicochemical
Protocol: Hydrolysis of the antimicrobial silanes to activate their surface bonding, an essential step in the coating process, were examined by ^1H NMR in D2O. In a typical experiment, approximately 10 mg of the trimethoxy-hydantoin containing silane was added to D2O and the first was acquired within 2 minutes of the addition. The evolution of methanol with time was measured by acquisition of subsequent incremental spectra on the same sample. Due to the limited solubility of these compounds in water, the amount of methanol hydrolysis product detected, in relation to an internal standard (residual H2O in D2O) was used.
Hydrolysis of the modified alkyloxysilanes is important for their reactivity and adhesion to surfaces. Knowing the rate of hydrolysis allows control over the mixing time and catalyst/acid content required before a coating will optimally bind to a substrate. To better understand the mechanisms of hydrolysis, a simple method of placing the silane in a solvent, such as D2O (deuterated water), and look for a characteristic methanol peak in NMR analysis, which will occur when the methanol is cleaved off by the hydrolysis from the D2O. […] After 2 minutes (the fastest the sample could be analyzed on NMR after mixing), a sharp, distinct methanol peak appears at 3.34 ppm (FIG. 4).

solubility in D2O (approximately 10 mg in D2O): not completely soluble | integration value of methanol peak (3.34 ppm) compared with D2O set as 1 (in D2O, after 2 minutes): 0.24 | time to plateau of methanol peak integration (in D2O, spectra recorded every 2 minutes): 10 min | time to nearly complete hydrolysis (in D2O, uncatalysed, methanol release by 1H NMR): less than 2 minutes
Structure (SMILES): CO[Si](CCCn1cc(CN2C(=O)NC(C)(C)C2=O)nn1)(OC)OC [the silane]
